EC50 data for four compounds are collected here from patent US10653144B2, “Pesticidal and parasiticidal vinyl isoxazoline compounds” (BOEHRINGER INGELHEIM ANIMAL HEALTH USA INC., priority 2016, dated 2020).

Structures are written as SMILES. A value given as a limit tells only on which side of the number the result lay.

This assay deals with A. aegypti L1 larvae. Briefly: A. aegypti L1 larvae motility dose response assay. As to conditions: Aedes aegypti, 48 h, diluted LB media, 25° C., motility vs DMSO control wells. The method, then: Efficacy of Compounds Against A. aegypti Mosquitos Compounds were formulated in 100% DMSO are added to microtiter plates containing 180 μl of diluted LB media (Luria-Bertani media is a combination of tryptone, salt and yeast extract). Ten A. aegypti L1 larvae are added and the plates are incubated at 25° C. for 48 h. The efficacy of a compound is determined based on the motility of the larvae as compared to average motility of control wells containing DMSO only. A dose response assay was conducted to determine an EC50 value.

Consider `O=C(CNC(=O)c1ccc(/C=C/C2=NOC(c3cc(Cl)cc(C(F)(F)F)c3)(C(F)(F)F)C2)c2ccccc12)NCC(F)(F)F` (stereo not shown) [Compound 1, 2-([4-[2-[5-[3-chloro-5-(trifluoromethyl)phenyl]-5-(trifluoromethyl)-4,5-dihydro-1,2-oxazol-3-yl]ethenyl]naphthalen-1-yl]formamido)-N-(2,2,2-trifluoroethyl)acetamide], for which the EC50 (in general, the concentration giving half of the maximal effect) was ≤ 20 µM.

For the compound `O=C(CNC(=O)c1ccc(/C=C/C2=NOC(c3cc(Cl)cc(C(F)(F)F)c3)(C(F)(F)F)C2)n2cncc12)NCC(F)(F)F` (stereo not shown) [Compound 5, 2-([5-[2-[5-[3-chloro-5-(trifluoromethyl)phenyl]-5-(trifluoromethyl)-4,5-dihydro-1,2-oxazol-3-yl]ethenyl]imidazo[1,5-a]pyridin-8-yl]formamido)-N-(2,2,2-trifluoroethyl)acetamide], the EC50 is ≤ 20 µM.

For the compound `O=C(NCCC(F)(F)F)c1ccc(/C=C/C2=NOC(c3cc(Cl)cc(C(F)(F)F)c3)(C(F)(F)F)C2)c2ccccc12` (stereo not shown) [Compound 2, 4-[2-[5-[3-chloro-5-(trifluoromethyl)phenyl]-5-(trifluoromethyl)-4,5-dihydro-1,2-oxazol-3-yl]ethenyl]-N-(3,3,3-trifluoropropyl)naphthalene-1-carboxamide], the EC50 is ≤ 20 µM.

In the case of `O=C(NCCC(F)(F)F)c1ccc(/C=C/C2=NOC(c3cc(Cl)cc(C(F)(F)F)c3)(C(F)(F)F)C2)n2cncc12` (stereo not shown) [Compound 6, 5-[2-[5-[3-chloro-5-(trifluoromethyl)phenyl]-5-(trifluoromethyl)-4,5-dihydro-1,2-oxazol-3-yl]ethenyl]-N-(3,3,3-trifluoropropyl)imidazo[1,5-a]pyridine-8-carboxamide], the concentration giving a half-maximal response (EC50) was ≤ 20 µM.
